US20250382640A1, “LIPID NANOPARTICLES FOR DELIVERY OF NUCLEIC ACIDS” (Juno Therapeutics, Inc., priority 2022, published 2025)
“Also recorded” adds a separate entry of the source.

Legend:
[1] = DNA loading into LNPs, Quant-iT PicoGreen dsDNA assay; assay type: physicochemical; details: Example 4a, Table E14 formulations
Experimental: The resulting LNPs were sized by dynamic light scattering (DLS) before being stored overnight at 5 Celsius. Following overnight incubation, the LNPs were again sized by DLS, and then sterile filtered in a biosafety cabinet. LNPs having an Z-average particle size greater than 200 nm in diameter were filtered using a 0.45 µm filter. All other LNPs were filtered using a 0.2 µm filter. Following sterile filtration, the LNPs were sized a final time by DLS. The LNPs were also assessed for DNA loading, as determined by the Quant-iT™ PicoGreen™ dsDNA broad range DNA assay. Percent DNA loading was calculated as 100×(signal of sample with Triton-X−signal of sample in DI water)/(signal of sample with Triton-X).

primary human T cells = experiment: Transient transfection of activated primary human T cells with DNA LNPs, GFP expression by flow cytometry; assay type: cell-based
Experimental: Separate compositions of CD4+ and CD8+ cells were selected by immunoaffinity-based enrichment from isolated PBMCs from leukapheresis samples from four healthy human donors. The selected cell compositions were cryopreserved, subsequently thawed and combined in culture at a 1:1 ratio of viable CD4+ to viable CD8+ cells. The combined CD4+ and CD8+ cell composition was then incubated for 48 hours with anti-CD3/CD28 beads (1:1 cell-to-bead ratio) in media containing recombinant IL-2, IL-7, and IL-15 to activate (stimulate) the T cells. […] The cells were cultured in media supplemented with 1 μg/mL of apolipoprotein E4 (ApoE4) to support cellular uptake of the LNPs.
Cells were analyzed by flow cytometry 24 to 48 hours after transfection to determine cell viability and transient GFP expression. Cell viability was determined by quantification of dead cells using SYTOX™ blue dead cell stain and GFP expression was determined via flow cytometry.
Formulations as described in Table E4 were used to transiently transfect human T cells at a 6.0 μg/mL DNA dosing concentration (final concentration with cells), and the effects of varying the described parameters on cell viability and transfection efficiency of T cells were assessed. A combined CD4+ and CD8+ T cell composition was generated and activated substantially as described in Example 2, and incubated in media with […] ApoE4 and LNPs generated from the various formulations for approximately 24 hours at 37° Celsius, 5% CO2, to allow for transfection. Following incubation, cells were assessed for viability and transfection efficiency as described in Example 2. Increasing ionizable lipid mass fraction percentage decreased transfection efficiency (p<0.05; left panel of FIGS. 6A), while there was no statistically significant effect of helper lipid or PEG lipid mass fraction percentage on transfection efficiency (middle and right panels, respectively, of FIG. 6A).

Row | Structure (SMILES) | DNA loading [1] | transfection efficiency (primary human T cells; Example 4a, alkyl chain linker length, Table E14 formulations) | transfection efficiency (primary human T cells; Example 4b, heterocyclic headgroup, Table E16 formulations) | transient transfection in T cells (GFP expression) (primary human T cells; F9 and F9A formulations with various ionizable lipids, 24 hours)
1 | CCCCC/C=C\C/C=C\CCCCCCCCC1(CCCCCCCC/C=C\C/C=C\CCCCC)OCC(CCN(C)C)O1 (stereo not shown) [DLin-KC2-DMA, 2,2-dilinoleyl-4-dimethylaminoethyl-[1,3]-dioxolane] | consistently high DNA loading | higher transfection efficiency compared to the other lipids; also recorded: highest transfection efficiency | highest | –
2 | CCCCC/C=C\C/C=C\CCCCCCCC(=O)OCCCCN(CCCCOC(=O)CCCCCCC/C=C\C/C=C\CCCCC)CCCCC1NC(=O)C(CCCCN(CCCCOC(=O)CCCCCCC/C=C\C/C=C\CCCCC)CCCCOC(=O)CCCCCCC/C=C\C/C=C\CCCCC)NC1=O (stereo not shown) [OF-C4-Deg-Lin] | – | – | – | highest levels of transient transfection
